System: inside of the forearm
Test: Skin conductance with time after water supply to the site treated with emollient milk
Type: in vivo, human
Conditions: conclusion from Tables 5 and 6; conductance on forearm after water supply
Protocol: Each of the emollient milks described in Table 3 was applied to the inside of the forearm in the same manner in Test Example 2, and dried for 30 minutes. A drop of distilled water was placed on that site to conduct water supply for 10 seconds, followed by wiping off. Then, the conductance values were measured with time for 15 minutes (n=3).
Process: Emollient milks having the same components as described in Table 3 with the exception that 3-(menthoxy)propane-1,2-diol was substituted by p-menthane-3,8-diol were prepared (Example 3 and Comparative Example 3). Each was applied to the inside of the forearm in an amount of 65 mg/cm^2, and evaluated in the same manner as in Test Example 3.

CC1CCC(C(C)(C)O)C(O)C1 (stereo not shown) [p-menthane-3,8-diol]
water-retention function (in words): excellent water-retention function
